Article PMC8286840, “Identifying SARS-CoV-2 antiviral compounds by screening for small molecule inhibitors of Nsp3 papain-like protease” (Biochemical Journal, 2021)
Where a name gives a salt, the structure may show the parent alone. Read-outs that look alike come from different tables or passages of the source.

Key:
[1] = target: T1, SARS-CoV-2 PLpro (nsp3 1564–1878) (Severe acute respiratory syndrome coronavirus 2, UniProt P0DTD1); assay: biochemical; set-up: FRET-quenched peptide (Pro3) cleavage by PLpro, 10 min pre-incubation, slope over 20 min, normalised to no-compound control; conditions: low concentration screen, read-out: % of control remaining
[2] = target: T1, SARS-CoV-2 PLpro (nsp3 1564–1878); assay: biochemical; set-up: FRET-quenched peptide (Pro3) cleavage by PLpro, 10 min pre-incubation, slope over 20 min, normalised to no-compound control; conditions: high concentration screen, read-out: % of control remaining

Q: With CC(C)OC(=O)C(C)(C)Oc1ccc(C(=O)c2ccc(Cl)cc2)cc1 [Fenofibrate] as the molecule, how does the remaining activity at 1.25 µM ([1]; Well no.=421) read?
A: 97.6%

Q: And the remaining activity at 1.25 µM ([1]; Well no.=2084)?
A: 99.9%

Q: And the remaining activity at 3.75 µM ([2]; Well no.=421)?
A: 101%

Q: And the remaining activity at 3.75 µM ([2]; Well no.=2084)?
A: 102%

Q: Which results are given for CC(C)(Oc1ccc(C(=O)c2ccc(Cl)cc2)cc1)C(=O)O [Fenofibric acid]?
A: remaining activity at 1.25 µM ([1]; Well no.=8204): 106%; remaining activity at 3.75 µM ([2]; Well no.=8204): 104%

Q: With Oc1ccc(C2CNCCc3c2cc(O)c(O)c3Cl)cc1 (stereo not shown) [Fenoldopam (mesylate)] as the molecule, how does the remaining activity at 1.25 µM ([1]; Well no.=6267) read?
A: 106%

Q: What about the remaining activity at 3.75 µM ([2]; Well no.=6267) of the same molecule?
A: 103%

Q: Which remaining activity at 1.25 µM ([1]; Well no.=757) does the source give for Oc1ccc(C2CNCCc3c2cc(O)c(O)c3Cl)cc1 (stereo not shown) [Fenoldopam bromide] here?
A: 98.2%

Q: And the remaining activity at 3.75 µM ([2]; Well no.=757)?
A: 96.8%

Q: With CC(C(=O)O)c1cccc(Oc2ccccc2)c1 (stereo not shown) [Fenoprofen] as the molecule, how does the remaining activity at 1.25 µM ([1]; Well no.=2082) read?
A: 98.6%

Q: And the remaining activity at 3.75 µM ([2]; Well no.=2082)?
A: 99.2%

Q: How did the remaining activity at 1.25 µM ([1]; Well no.=705) turn out when CC(Cc1ccc(O)cc1)NCC(O)c1cc(O)cc(O)c1 (stereo not shown) [Fenoterol hydrobromide] was run?
A: 104%

Q: What about the remaining activity at 3.75 µM ([2]; Well no.=705) of the same molecule?
A: 100%

Q: What does the source list for CC1=C(/C=C/C(C)=C/C=C/C(C)=C/C(=O)Nc2ccc(O)cc2)C(C)(C)CCC1 [Fenretinide]?
A: remaining activity at 1.25 µM ([1]; Well no.=1577): 92.1%; remaining activity at 3.75 µM ([2]; Well no.=1577): 92.2%

Q: With O=C1NCC2(CCN(CCc3ccccc3)CC2)O1 [Fenspiride (Hydrochloride)] as the molecule, how does the remaining activity at 1.25 µM ([1]; Well no.=6705) read?
A: 104%

Q: What about the remaining activity at 3.75 µM ([2]; Well no.=6705) of the same molecule?
A: 100%

Q: O=C1NCC2(CCN(CCc3ccccc3)CC2)O1 [Fenspiride hydrochloride] was tested. Which remaining activity at 1.25 µM ([1]; Well no.=469) did it give?
A: 99.1%

Q: And the remaining activity at 3.75 µM ([2]; Well no.=469)?
A: 103%

Q: Which results are given for O=C(O)Cc1sc(-c2ccccc2)nc1-c1ccc(Cl)cc1 [Fentiazac]?
A: remaining activity at 1.25 µM ([1]; Well no.=1772): 100%; remaining activity at 3.75 µM ([2]; Well no.=1772): 97.2%

Q: Clc1ccc(C(Cn2ccnc2)OCc2ccc(Sc3ccccc3)cc2)c(Cl)c1 (stereo not shown) [Fenticonazole nitrate] was tested. Which remaining activity at 1.25 µM ([1]; Well no.=5044) did it give?
A: 96.2%

Q: What about the remaining activity at 3.75 µM ([2]; Well no.=5044) of the same molecule?
A: 95.9%

Q: With C/C1=C/CCC(C)(O)/C=C\C(C(C)C)C(OC(=O)c2ccc(O)cc2)C1 (stereo not shown) [Feroline] as the molecule, how does the remaining activity at 1.25 µM ([1]; Well no.=3493) read?
A: 101%

Q: What about the remaining activity at 3.75 µM ([2]; Well no.=3493) of the same molecule?
A: 99.5%

Q: How did the remaining activity at 1.25 µM ([1]; Well no.=6252) turn out when CCOC(=O)c1ccc(NC2CCCCC2)c(N)c1 [Ferrostatin-1] was run?
A: 103%

Q: And the remaining activity at 3.75 µM ([2]; Well no.=6252)?
A: 98%

Q: COc1cc(/C=C/C(=O)O)ccc1O [Ferulic acid (sodium)] was tested. Which remaining activity at 1.25 µM ([1]; Well no.=8535) did it give?
A: 107%

Q: And the remaining activity at 3.75 µM ([2]; Well no.=8535)?
A: 106%

Q: What does the source list for CCOC(=O)/C=C/c1ccc(O)c(OC)c1 [Ferulic acid ethylester]?
A: remaining activity at 1.25 µM ([1]; Well no.=3853): 97.6%; remaining activity at 3.75 µM ([2]; Well no.=3853): 103%

Q: Which remaining activity at 1.25 µM ([1]; Well no.=3518) does the source give for COc1cc(/C=C/C(=O)O)ccc1O [Ferulic acid] here?
A: 98.9%

Q: And the remaining activity at 3.75 µM ([2]; Well no.=3518)?
A: 100%

Q: How did the remaining activity at 1.25 µM ([1]; Well no.=7767) turn out when Cc1c(CC(=O)O)c2cccnc2n1Cc1ccc(S(C)(=O)=O)cc1C(F)(F)F [Fevipiprant] was run?
A: 106%

Q: What about the remaining activity at 3.75 µM ([2]; Well no.=7767) of the same molecule?
A: 106%

Q: Which remaining activity at 1.25 µM ([1]; Well no.=5559) does the source give for COC(=O)/C=C/c1cccc(N(Cc2ccc(-c3ccc(N(C)C)cc3)cc2)C(=O)C2CCCCC2)c1 [Fexaramine] here?
A: 97.4%

Q: What about the remaining activity at 3.75 µM ([2]; Well no.=5559) of the same molecule?
A: 104%

Q: What does the source list for CC(C)(C(=O)O)c1ccc(C(O)CCCN2CCC(C(O)(c3ccccc3)c3ccccc3)CC2)cc1 (stereo not shown) [Fexofenadine (hydrochloride)]?
A: remaining activity at 1.25 µM ([1]; Well no.=6619): 104%; remaining activity at 3.75 µM ([2]; Well no.=6619): 105%

Q: Which remaining activity at 1.25 µM ([1]; Well no.=425) does the source give for CC(C)(C(=O)O)c1ccc(C(O)CCCN2CCC(C(O)(c3ccccc3)c3ccccc3)CC2)cc1 (stereo not shown) [Fexofenadine hydrochloride] here?
A: 93.1%

Q: What about the remaining activity at 3.75 µM ([2]; Well no.=425) of the same molecule?
A: 92.8%

Q: With COc1cccc2c1[C@@H]1CN(CCCCn3c(=O)[nH]c4c(sc5ncc(-c6ccccc6)nc54)c3=O)C[C@@H]1CO2 [Fiduxosin hydrochloride] as the molecule, how does the remaining activity at 1.25 µM ([1]; Well no.=611) read?
A: 97.2%

Q: And the remaining activity at 3.75 µM ([2]; Well no.=611)?
A: 97.4%

Q: What does the source list for COc1cc(C(=O)OC2CC3CCC(C2)N3C)ccc1O (stereo not shown) [Fillalbin]?
A: remaining activity at 1.25 µM ([1]; Well no.=3539): 92.8%; remaining activity at 3.75 µM ([2]; Well no.=3539): 97.4%

Q: Which results are given for CCCCc1nc(C)c(CC(=S)N(C)C)c(=O)n1Cc1ccc(-c2ccccc2-c2nnn[nH]2)cc1 [Fimasartan]?
A: remaining activity at 1.25 µM ([1]; Well no.=6183): 107%; remaining activity at 3.75 µM ([2]; Well no.=6183): 103%

Q: With CC(C)(C)NC(=O)[C@H]1CC[C@H]2[C@@H]3CC[C@H]4NC(=O)C=C[C@]4(C)[C@H]3CC[C@]12C [Finasteride] as the molecule, how does the remaining activity at 1.25 µM ([1]; Well no.=2086) read?
A: 99%

Q: And the remaining activity at 3.75 µM ([2]; Well no.=2086)?
A: 104%

Q: Which results are given for CCOCc1cc(OC)c(-c2ccc(C[C@H](NC(=O)c3c(F)cccc3F)C(=O)O)cc2)c(OC)c1 [Firategrast]?
A: remaining activity at 1.25 µM ([1]; Well no.=7930): 103%; remaining activity at 3.75 µM ([2]; Well no.=7930): 99%

Q: Which remaining activity at 1.25 µM ([1]; Well no.=3443) does the source give for O=c1c(O)c(-c2ccc(O)c(O)c2)oc2cc(O)ccc12 [Fisetin] here?
A: 91.4%

Q: And the remaining activity at 1.25 µM ([1]; Well no.=6254)?
A: 104%

Q: And the remaining activity at 3.75 µM ([2]; Well no.=3443)?
A: 95%

Q: And the remaining activity at 3.75 µM ([2]; Well no.=6254)?
A: 99.6%

Q: With O=C1C[C@@H](c2ccc(O)c(O)c2)Oc2c1ccc(O[C@@H]1O[C@H](CO)[C@@H](O)[C@H](O)[C@H]1O)c2O [Flavanomarein] as the molecule, how does the remaining activity at 1.25 µM ([1]; Well no.=3805) read?
A: 96.3%

Q: What about the remaining activity at 3.75 µM ([2]; Well no.=3805) of the same molecule?
A: 100%

Q: With COc1ccc(/C=C/C(=O)c2c(O)cc(OC)cc2OC)cc1 [Flavokawain A] as the molecule, how does the remaining activity at 1.25 µM ([1]; Well no.=3607) read?
A: 104%

Q: And the remaining activity at 3.75 µM ([2]; Well no.=3607)?
A: 105%

Q: What does the source list for COc1cc(O)c(C(=O)/C=C/c2ccccc2)c(OC)c1 [Flavokawain B]?
A: remaining activity at 1.25 µM ([1]; Well no.=3685): 98.5%; remaining activity at 3.75 µM ([2]; Well no.=3685): 100%

Q: Cc1c(-c2ccccc2)oc2c(C(=O)OCCN3CCCCC3)cccc2c1=O [Flavoxate (hydrochloride)] was tested. Which remaining activity at 1.25 µM ([1]; Well no.=6803) did it give?
A: 94.8%

Q: What about the remaining activity at 3.75 µM ([2]; Well no.=6803) of the same molecule?
A: 94.8%

Q: With Cc1c(-c2ccccc2)oc2c(C(=O)OCCN3CCCCC3)cccc2c1=O [Flavoxate HCl] as the molecule, how does the remaining activity at 1.25 µM ([1]; Well no.=5084) read?
A: 99%

Q: What about the remaining activity at 3.75 µM ([2]; Well no.=5084) of the same molecule?
A: 102%

Q: Which remaining activity at 1.25 µM ([1]; Well no.=709) does the source give for O=C(NCC1CCCCN1)c1cc(OCC(F)(F)F)ccc1OCC(F)(F)F (stereo not shown) [Flecainide acetate] here?
A: 98.5%

Q: What about the remaining activity at 1.25 µM ([1]; Well no.=1649) of the same molecule?
A: 101%

Q: And the remaining activity at 3.75 µM ([2]; Well no.=709)?
A: 98.3%

Q: And the remaining activity at 3.75 µM ([2]; Well no.=1649)?
A: 101%

Q: CN1CCN(c2c(F)cc3c(=O)c(C(=O)O)cn(CCF)c3c2F)CC1 [Fleroxacin] was tested. Which remaining activity at 1.25 µM ([1]; Well no.=2120) did it give?
A: 92.9%

Q: And the remaining activity at 3.75 µM ([2]; Well no.=2120)?
A: 96.3%

Q: With O=c1[nH]c(=O)n([C@H]2C[C@H](O)[C@@H](CO)O2)cc1F [Floxuridine] as the molecule, how does the remaining activity at 1.25 µM ([1]; Well no.=2124) read?
A: 98.1%

Q: What about the remaining activity at 1.25 µM ([1]; Well no.=8010) of the same molecule?
A: 88%

Q: What about the remaining activity at 3.75 µM ([2]; Well no.=2124) of the same molecule?
A: 102%

Q: And the remaining activity at 3.75 µM ([2]; Well no.=8010)?
A: 86.4%
